Source: US11224585B2, “Compositions containing omega-3 oil and uses thereof” (Maine Natural Health Company, Inc., priority 2010, dated 2022)

Legend:
[1] = system: stomach lesions in fasted mice; conditions: 10 mg/kg ketoprofen, one hour after administration, n = 8
[2] = system: carrageenin-induced ear swelling mouse model; assay: Carrageenin-induced ear swelling mouse model of inflammation; conditions: mice, ketoprofen 2 mg/kg, ear volume vs control mice, eight mice per treatment
[3] = Absorption rate of ibuprofen in mice (tail vein samples); format: in vivo; conditions: mouse, blood (tail vein samples), 25 mg/kg
Description: Additional experiments to test the absorption rate of the different omega-3 oil-containing pharmaceutical compositions described herein was illustrated in a mouse model.

| Structure (SMILES) | Average Lesions Score/Stomach [1] | % of Inhibition of Inflammation [2] | Cmax [3] |
| --- | --- | --- | --- |
| CC(C(=O)O)c1cccc(C(=O)c2ccccc2)c1 (stereo not drawn) [Ketoprofen in Saline, ketoprofen] | 33 | 45% |  |
| CC(C)Cc1ccc(C(C)C(=O)O)cc1 (stereo not drawn) [Ibuprofen in saline, ibuprofen] |  |  | 10000 ng/mL |
